Experimental findings from publication PMC9351465, “Mechanism-based heparanase inhibitors reduce cancer metastasis in vivo” (Proceedings of the National Academy of Sciences of the …, 2022) are described below.

The subject of one experiment is U87 glioblastoma cells. Kind of experiment: Matrigel invasion assay. The note with it: 20 µM inhibitor, 4 h. The experiment is classed as cell-based, human. The procedure:
Preliminary in cellulo evaluations of our inhibitors’ effects on cancer aggression were conducted using a Matrigel invasion assay, which measures the ability of cells to migrate through transwell inserts coated with the ECM material Matrigel. Matrigel invasion by cells requires a broad complement of proteases and glycosidases, thereby mimicking some aspects of metastasis in vivo ([51]).
For HS-degradation assays, ECM coated dishes were incubated with 200 ng recombinant HPSE in 1 mL reaction mixture (10 mM buffer Phosphate-Citrate pH 6.0, 50 mM NaCl, 1 mM DTT, 1 mM CaCl2) containing HPSE inhibitors or DMSO control. Plates were incubated at 37°C for 5 h, then assay medium collected and applied to a 0.9×30 cm Sepharose 6B size exclusion column. The Sepharose 6B column was eluted with PBS, and 35S radioactivity of 0.2 mL fractions quantitated using a liquid scintillation analyzer (Packard BioScience) (11). […]
(§1) Cells in the upper chamber were separated by Matrigel from a lower chamber containing 600 µL DMEM, supplemented with 10% FBS. […] 10 randomly selected microscopic fields were recorded, and cell invasion calculated using ImageJ, by quantitating the percentage of the field stained by crystal violet. […]

Another experiment has as its system B16 melanoma cells. Kind of experiment: B16 murine melanoma experimental lung metastasis model. Type of experiment: in vivo, mouse. The note with it: C57BL/J6 mice, i.p. 300 nmol 2 or 150 μg SST0001, then i.v. B16 cells with 2 nmol 2 or 10 μg SST0001; after 14 d; vs PBS. The procedure:
We initially tested a B16 murine melanoma metastasis model, measuring the formation of metastatic lung tumors by B16 melanoma cells after intravenous (i.v.) injection. The efficacy of covalent HPSE inhibition by 2 was compared to SST0001 (Roneparstat), a current best-in-class HPSE inhibitor and clinical trial candidate (SI Appendix, Fig. S1). Mice were inoculated intraperitoneally (i.p.) with 300 nmol of 2 (∼15 μmol/kg for a 20 g mouse), or 150 μg SST0001, followed by an i.v. injection of B16 cells alongside 2 nmol 2 or 10 μg SST0001.
For HS-degradation assays, ECM coated dishes were incubated with 200 ng recombinant HPSE in 1 mL reaction mixture (10 mM buffer Phosphate-Citrate pH 6.0, 50 mM NaCl, 1 mM DTT, 1 mM CaCl2) containing HPSE inhibitors or DMSO control. […] The Sepharose 6B column was eluted with PBS, and 35S radioactivity of 0.2 mL fractions quantitated using a liquid scintillation analyzer (Packard BioScience) (11). […]
as §1
Mice were sacrificed after 14 days and the lungs were dissected, photographed and evaluated for the number of metastatic foci/lung. […]

For the next experiment, the system named is 4T1 breast cancer cells. Nature of the experiment: 4T1 murine mammary carcinoma lung metastasis model (luciferase imaging). The experiment is classed as in vivo, mouse. The note with it: Balb/c mice, i.p. 300 nmol 2 or 150 μg SST0001, then i.v. 4T1-Luc cells with 2 nmol 2 or 10 μg SST0001; 14 d. The procedure: Since HPSE drives metastasis in multiple cancer types, we tested 2 against another metastasis model—4T1 murine mammary carcinoma, which also migrates to the lungs. Here, we were aided by a constitutive luciferase expressing 4T1 line, enabling real-time tracking of cancer growth by chemiluminescent imaging. Similar to the B16 model, mice were dosed i.p. with 300 nmol of 2 or 150 μg SST0001, followed by i.v. injection of 4T1-Luc cells alongside 2 nmol 2 or 10 μg SST0001.
B16-BL6 melanoma cells/mouse in a volume of 100 µL, alongside 20 µM 2 or 10 µg SST0001.
Mice were sacrificed after 14 days and the lungs were dissected, photographed and evaluated for the number of metastatic foci/lung. Plots and statistical analyses were carried out in Prism […]
Bioluminescence imaging of lung metastases produced by luciferase-expressing 4T1 cells was carried out using a highly sensitive, cooled charge-coupled device camera assembled in a specimen box (IVIS; Xenogen Corp, Hopkinton, MA). […] The tumor burden was quantified using Living Image software (Xenogen) (12, 13). […]
CAG myeloma - Luciferase-labeled CAG human myeloma cells (3x106) were injected into the tail vein of NOD/SCID mice. […] Tumor burden was quantified using Living Image software. […]

As for `CC(=O)N[C@H]1[C@@H](O[C@H]2[C@H](O)[C@@H](O)[C@@H]3O[C@@H]3[C@@H]2C(=O)O)O[C@H](CO)[C@@H](O)[C@@H]1O` [compound 2], the “Matrigel invasion (% field stained)” value with U87 glioblastoma cells was “significantly reduced Matrigel invasion”. For the same compound, the “lung metastases (metastatic foci/lung)” value with B16 melanoma cells is on record as “marked reduction in lung growths”. Besides, the “lung metastases (bioluminescent flux)” value in the experiment on 4T1 breast cancer cells was “marked reduction in lung metastases”.
